What was measured:
[1] = test system: rodent models of cerebral ischemia; settings: in vivo; cited from earlier work
[2] = test system: cultured cerebellar granule neurons; settings: cited from earlier work
rat cerebellum = settings: injection; bacterial lipopolysaccharide and interferon-γ; cited from earlier work
PPARγ = biological target: T1, PPARγ (Homo sapiens, UniProt P37231); settings: cited from earlier work
T1 sequence (P37231 1-505): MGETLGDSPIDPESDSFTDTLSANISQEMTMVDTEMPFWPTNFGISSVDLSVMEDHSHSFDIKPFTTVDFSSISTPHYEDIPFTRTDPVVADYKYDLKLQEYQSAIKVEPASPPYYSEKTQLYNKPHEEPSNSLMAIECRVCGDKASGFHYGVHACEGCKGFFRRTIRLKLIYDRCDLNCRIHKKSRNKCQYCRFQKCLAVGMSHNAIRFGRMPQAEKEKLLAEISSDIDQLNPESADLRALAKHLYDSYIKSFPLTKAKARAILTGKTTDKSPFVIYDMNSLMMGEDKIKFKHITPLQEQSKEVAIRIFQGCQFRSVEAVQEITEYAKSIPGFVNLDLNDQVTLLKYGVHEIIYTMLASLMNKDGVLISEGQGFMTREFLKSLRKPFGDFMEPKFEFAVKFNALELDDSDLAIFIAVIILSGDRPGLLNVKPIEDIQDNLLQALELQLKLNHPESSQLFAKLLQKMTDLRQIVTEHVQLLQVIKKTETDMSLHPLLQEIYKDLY

[3] = test system: rats subjected to middle cerebral artery occlusion (MCAO); settings: 90 minute MCAO
Text: Male Wistar rats, 250-350 g, were obtained from Charles River (Wilmington, Mass.). Animals were housed and cared for in the Animal Resource Center and allowed free access to food and water before and after surgery. All procedures were approved by the Institutional Animal Care and Use Committee of Case Western Reserve University.
A 4.0 nylon suture with a flame rounded tip was advanced through the internal carotid artery to occlude the MCA while cerebral blood flow was monitored using laser doppler (Perimed AB, Jarfalla, Sweden). At the time of reperfusion rats were again anesthetized and the suture removed with cerebral blood flow monitoring to ensure reperfusion. Arterial blood pressure, arterial blood gases and temperature were all monitored and controlled during the length of the procedure.
Control animals were injected with 0.1 ml DMSO.
Rats were euthanized by exposure to 5% halothane until breathing ceased. They then underwent intracardiac perfusion first with PBS and then with 4% paraformaldehyde. Brains were isolated and immersion fixed in 4% paraformaldehyde overnight. Tissue was cryoprotected in 30% sucrose in PBS. Twenty micron frozen sections were collected every […] beginning at the level of the forceps minor corpus callosum and extending through the hippocampus. Sections were stained with Thionin and the area of infarction measured using Bioquant computer software (R&M Biometrics, Nashville, Tenn.) by subtracting the uninfarcted tissue in the ischemic hemisphere from the volume of the contralateral hemisphere. This method corrects for post-ischemic edema.
Male Wistar rats, 250-350 g, were obtained from Charles River (Wilmington, Mass.). […] Animals were housed and cared for in the Animal Resource Center and allowed free access to food and water before and after surgery. […] The tail artery was exposed and cannulated to measure mean arterial blood pressure and to obtain blood for blood gas measurements during surgery. Animals in which normal temperature, blood pressure and gases could not be maintained were excluded from the study. MCAO was performed as previously described. Briefly, the bifurcation of the common carotid artery was exposed. The external carotid artery was isolated and a suture placed 0.5 cm from the bifurcation. Following electrocoagulation distal to the suture the external carotid was cut between the suture and the electrocoagulated segment. A suture was applied to the common carotid artery such that it could be removed later. A loop of suture was then placed under the internal carotid artery and the artery elevated to transiently occlude blood flow. A small nick was made in the wall of the external carotid artery. Through this nick a 22 mm length of 4.0 Ethicon suture, its tip rounded by heating near a flame, was gently threaded from the external to the internal carotid artery lumen to a distance of 18 mm from the bifurcation of the carotid. The thread was held in place with a suture around the stump of the external carotid artery and the suture around the internal carotid artery released. The catheter was removed from the tail artery and both incisions were closed. The rats were then allowed to recover from anesthesia. […] The neck incision was reopened and the 4.0 Ethicon suture removed. The suture that held it in place was tightened and the suture around the common carotid artery was removed. After confirmation of reperfusion by visual inspection, the incision was closed and the animal allowed to recover.
Twenty micron frozen sections of paraformaldehyde fixed brains were collected every 1000 μm beginning at the level of the forceps minor corpus callosum and extending through the hippocampus. The slides were stained with Thionin. The sections were then trans-illuminated and the image transmitted to a computer screen.

hemorrhagic stroke = settings: in vivo; cited from earlier work
ICAM mRNA = ICAM mRNA by real time PCR after MCAO; format: in vivo, rat; settings: rosiglitazone 0.1 mg/kg or pioglitazone 1 mg/kg 24 h before and at time of 2 hour MCAO; sacrificed 24 h later
PPARγ-PPRE binding = biological target: T2, PPARγ-PPRE binding (Rattus norvegicus, UniProt O88275); experiment: Electrophoretic mobility shift assay of PPARγ DNA (PPRE) binding in brain nuclear extract; format: in vivo; settings: both ipsilateral and contralateral hemispheres, 0.1 mg/kg 24 h before and at time of 2 hour MCAO
T2 construct: from tissue; host or cells: rat brain nuclear extract (ipsilateral and contralateral hemisphere after MCAO)
T2 sequence (O88275 1-505): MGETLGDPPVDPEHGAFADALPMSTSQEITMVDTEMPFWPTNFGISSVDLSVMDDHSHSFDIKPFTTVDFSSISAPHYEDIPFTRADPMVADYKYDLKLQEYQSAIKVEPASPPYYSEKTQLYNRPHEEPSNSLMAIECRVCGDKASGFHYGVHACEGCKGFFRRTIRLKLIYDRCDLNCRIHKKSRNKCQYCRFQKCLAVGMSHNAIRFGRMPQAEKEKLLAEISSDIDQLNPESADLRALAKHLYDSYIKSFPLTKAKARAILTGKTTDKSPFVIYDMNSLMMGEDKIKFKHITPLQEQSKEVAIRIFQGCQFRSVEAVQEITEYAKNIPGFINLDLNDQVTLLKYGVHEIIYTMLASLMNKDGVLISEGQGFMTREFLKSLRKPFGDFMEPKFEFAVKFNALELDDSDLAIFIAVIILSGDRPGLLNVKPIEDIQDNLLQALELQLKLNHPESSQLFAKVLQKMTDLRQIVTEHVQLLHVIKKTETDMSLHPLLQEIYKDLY
T2 sequence (Q05343 1-467 partner): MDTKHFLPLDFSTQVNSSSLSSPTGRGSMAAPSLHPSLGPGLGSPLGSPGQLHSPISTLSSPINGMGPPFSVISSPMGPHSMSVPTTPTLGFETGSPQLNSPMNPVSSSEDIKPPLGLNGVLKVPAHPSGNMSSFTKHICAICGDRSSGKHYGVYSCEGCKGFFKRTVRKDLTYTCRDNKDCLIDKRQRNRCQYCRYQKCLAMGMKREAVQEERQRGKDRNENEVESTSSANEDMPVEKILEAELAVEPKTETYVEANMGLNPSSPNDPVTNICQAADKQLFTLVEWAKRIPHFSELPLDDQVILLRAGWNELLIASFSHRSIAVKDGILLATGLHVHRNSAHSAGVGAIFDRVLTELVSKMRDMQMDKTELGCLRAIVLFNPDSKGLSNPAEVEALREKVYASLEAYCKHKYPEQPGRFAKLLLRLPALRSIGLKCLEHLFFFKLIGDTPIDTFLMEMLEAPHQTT
Procedure: Eight hours after the onset of MCAO the animals were euthanized by halothane inhalation and the brains quickly removed. Blocks of tissue 4 mm thick encompassing the rostral caudal extension of the infarct and the same area on the contralateral hemisphere were dissected free and snap frozen in liquid nitrogen. Nuclear extraction was performed and protein concentrations were determined using the Bradford method.
Ten micrograms of nuclear extract protein was incubated with 32P-labeled double stranded oligonucleotide (40 fmol) containing the PPAR responsive element sequences in rat acyl CoA oxidase promoter (5′-[…]-3′) (SEQ ID NO: 5). For competition assays, 100 fold radioinert (cold) competitor oligonucleotides were included in the reaction mixture. Interference assays with antibody to PPARγ (2 μg/reaction; SC-7273x, Santa Cruz Biotechnology,) were used to determine specificity of PPARγ-PPRE binding.
Nucleoprotein-oligonucleotide complexes were resolved electrophoretically on a 7% non-denaturing polyacrylamide gel. The gel was autoradiographed and optical density was assessed using Kodak Analysis (EDAS) 290 system.

LPL mRNA = experiment: Lipoprotein lipase (LPL) mRNA by real time PCR after MCAO; format: in vivo, rat; settings: rosiglitazone 0.1 mg/kg, pioglitazone 1.0 mg/kg; 24 h before and at time of 2 hour MCAO; tissue 24 h later
Text: At the time of sacrifice the animal was placed in an anesthesia chamber and exposed to 5% halothane, 30% oxygen, 65% nitrous oxide until it ceased breathing. The rat was the, processed for either histologic and immunocytochemical analysis or decapitated and the brain immediately dissected for mRNA isolation. Animals used for immunohistochemistry underwent intracardiac perfusion; the thoracic cavity was opened, a blunt needle placed through the left ventricle into the aorta and the right atrium cut. Animals were perfused through the heart, first with 0.1 M phosphate buffer and then with 4% paraformaldehyde (pH 7.4). The brain was removed from the rat and immersion fixed in 4% paraformaldehyde for an additional hour. Tissue was then transferred to 30% sucrose in phosphate buffer in order to cyroprotect it. Brains were mounted in OCT sectioning medium and frozen sections cut at either twenty microns (for infarct volume determination) or ten microns (for immunocytochemistry). Animals used in real time PCR experiments were decapitated after euthanasia and the brain quickly removed.
A 2 mm thick coronal slice of tissue through the area of maximal infarction was quickly homogenized in Trizol (Gibco BRL, Rockville, Md.). […] RNA was isolated using Life Technologies Protocol (Rockville, Md.), and cDNA synthesized from 1.5 μg of total RNA. […]

[4] = Physiologic parameters and cerebral blood perfusion monitoring during MCAO; format: in vivo, rat; settings: during MCAO surgery
Procedure: MCAO was performed as previously described. […] The rats were then allowed to recover from anesthesia.
Male Wistar rats were anesthetized with halothane. Cerebral blood perfusion was monitored during surgery and reperfusion including the time of occlusion and the time of reperfusion. A small craniotomy was made midway between the corner of the eye and the external auditory canal. A laser Doppler probe (Perimed AB, Järfälla, Sweden) was placed such that its beam passed through the craniotomy and cerebral blood perfusion measured. Once the baseline measurement was obtained, MCAO was performed. Cerebral blood perfusion was monitored at the time of MCAO and at the time of reperfusion. There were no significant differences in cerebral blood flow reductions during MCAO for any of the treatment groups. Following completion of MCAO, animals were allowed to recover and returned to their cages.

In the case of `Cc1c(C)c2c(c(C)c1O)CCC(C)(COc1ccc(CC3SC(=O)NC3=O)cc1)O2` (single isomer, unassigned; (+)) [troglitazone, (+)-5[[4-[(3,4-dihydro-6-hydroxy-2,5,7,8-tetramethyl-2H-1-benzopyran-2-yl)methoxy]phenyl]methyl]-2,4thiazolidinedione], the “neuroprotection in rodent models of cerebral ischemia” value [1] is listed as “effective neuroprotective agents”, the “cell death following glutamate exposure” value [2] is listed as “reduces cell death” and the low-potassium-induced apoptosis [2] is listed as “suppresses low-potassium-induced apoptosis”. For the same molecule, the “cell death in rat cerebellum” value (rat cerebellum) was “reduces cell death”.
For `CCCCC/C=C/C=C1/C(=O)C=C[C@@H]1C/C=C\CCCC(=O)O` [15-deoxy-D12,14-prostaglandin J2], the “concentrations at which it binds PPARγ” value (PPARγ) is listed as 2 to 5 µM and the “cell death in rat cerebellum” value (rat cerebellum) is listed as “reduces cell death”.
In the case of `O=C(Nc1ccncc1)c1cc([N+](=O)[O-])ccc1Cl` [T0070907], the mean absolute infarction volume ([3]; T0070907 24 h before and at time of MCAO) is reported as 176 mm³ and the animals that died ([3]; panel B) is reported as “one animal”.
For `CCCCCCCCCCCCCCCCOC[C@H](COP(=O)([O-])OCC[N+](C)(C)C)OC(=O)CCCCCCCC(=O)O` [hexadecyl azelaoyl phosphatidyicholine], the Kd (PPARγ) is given as roughly 0.04 µM.
In the case of `CC(C)Cc1ccc(C(C)C(=O)O)cc1` (centres unmarked) [ibuprofen], the “cell death in rat cerebellum” value (rat cerebellum) is listed as “reduces cell death”.
In the case of `CCCCC[C@H](O)/C=C/[C@H]1C(=O)C=C[C@@H]1C/C=C\CCCC(=O)O` [prostaglandin J2], the “benefit in hemorrhagic stroke” value (hemorrhagic stroke) is given as “beneficial in hemorrhagic stroke”.
In the case of `CN(CCOc1ccc(CC2SC(=O)NC2=O)cc1)c1ccccn1` (centres unmarked) [rosiglitazone, 5-[4-[2-(N-methyl-N-(2-pyridyl)amino]ethoxy]benzyl]thiazolidine-2,4-dione], the “ICAM mRNA compared with vehicle treated rats” value (ICAM mRNA) is reported as “significant reduction in ICAM mRNA”, the “PPARγ-PPRE binding (densitometry), in words” value (PPARγ-PPRE binding) is reported as “significantly increase PPARγ-PPRE binding” and the “PPARγ-PPRE binding (densitometry), in words” value (PPARγ-PPRE binding; listed as Rosiglitazone) is reported as “increased DNA binding in both the ischemic and the non-ischemic hemispheres”. For the same molecule, the “increase in LPL mRNA levels within the ischemic hemisphere” value (LPL mRNA) was 254% and the “physiologic parameters (temperature, arterial blood gases, blood pressure, cerebral blood flow) versus vehicle” value [4] was “no differences in physiologic parameters”.
In the case of Nitrolinoleic acid, the Ki (PPARγ) is given as greater than 1 µM.

From patent publication US20100331330A1, “METHODS AND COMPOSITIONS FOR TREATING ISCHEMIC STROKE” (priority 2006, published 2010)
